Laboratory results as given in paper PMC9877462, “Real time monitoring and evaluation of the inhibition effect of fucoxanthin against α-amylase activity by using QCM-A” (Frontiers in Nutrition, 2023).

Target: T1, α-amylase (from human saliva, EC 3.2.1.1) (Homo sapiens, UniProt P0DUB6)
T1 construct: gene AMY1A
T1 sequence (P0DUB6 16-511): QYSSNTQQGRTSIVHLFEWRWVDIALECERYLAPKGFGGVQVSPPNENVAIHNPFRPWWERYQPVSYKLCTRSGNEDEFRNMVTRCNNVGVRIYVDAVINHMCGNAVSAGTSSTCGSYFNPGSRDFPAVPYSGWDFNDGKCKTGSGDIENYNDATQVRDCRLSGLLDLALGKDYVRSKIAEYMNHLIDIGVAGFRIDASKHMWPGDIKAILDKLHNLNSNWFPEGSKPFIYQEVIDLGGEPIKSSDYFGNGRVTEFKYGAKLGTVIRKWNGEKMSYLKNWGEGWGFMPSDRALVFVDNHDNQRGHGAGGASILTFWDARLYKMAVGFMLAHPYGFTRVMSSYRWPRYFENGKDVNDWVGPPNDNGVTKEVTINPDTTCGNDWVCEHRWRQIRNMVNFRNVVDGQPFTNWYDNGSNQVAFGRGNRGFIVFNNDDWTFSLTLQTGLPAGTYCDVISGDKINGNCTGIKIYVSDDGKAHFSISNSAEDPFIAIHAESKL
Assay: Enzyme inhibition kinetics (Lineweaver-Burk and Dixon plots) with amylose substrate; amylose-immobilized QCM-A hydrolysis assay
Format: biochemical

With `CC(=O)O[C@H]1CC(C)(C)C(=C=C/C(C)=C/C=C/C(C)=C/C=C/C=C(C)/C=C/C=C(\C)C(=O)C[C@@]23O[C@]2(C)C[C@@H](O)CC3(C)C)[C@](C)(O)C1` [fucoxanthin] the Ki was 36.3 µM.
